# Test results as given in paper PMC7719179, “Small molecule inhibition of Dynamin-dependent endocytosis targets multiple niche signals and impairs leukemia stem cells” (Nature Communications, 2020).
# Values joined by “and” are separate entries in the source; they are usually repeats but may differ in a detail not shown here. Equal values may be shown once.
# Assays:
# [1] = tested on: IL-7R at the surface of Ba/F3-IL7R cells; test: Surface expression of IL-7R on Ba/F3-IL7R cells (flow cytometry); format: cell-based, murine; settings: replicates
# Description: Ba/F3 cells (kindly provided by a person from The Walter and Eliza Hall Institute of Medical Research) were infected with pMIG-R1/Il7r retroviral supernatants produced in 293T cells, and transduced cells were sorted with a BD Influx (BD Australia) and selected by culture in medium supplemented with 5 ng/mL rmIL-7 (#217-17, Pepro Tech, Rocky Hill NJ, USA) for 7 days. Ba/F3 cells stably expressing Il7r (Ba/F3-IL7R) were infected with TxTCPVIR-Stat5-CA retroviral supernatants produced in 293T. Cell sorting was performed with a BD Influx and transduced cells were treated with doxycycline for 48 h to induce the expression of the Stat5-CA-T2A-mCherry fusion protein.
# Flow cytometry analyses were performed as previously described[10],[86] on single-cell suspensions stained using BD Pharmingen antibodies (BD Australia, North Ryde NSW, Australia) against mouse CD4 (RM4-5), CD8 (53-6.7), CD25 (PC61.5), CD44 (IM7), CD45.1 (A20), CD45.2 (104), Thy1.2 (53-2.1; #561616), TCRβ (H57-597), CD117 (ACK45), CD135 (A2F10.1), CD150 (TC15-12F12.2; #562373), B220 (RA3-6B2; #563708), CD3 (145-2C11; #563004), CD19 (ID3; #557655), Gr-1 (RB6-8C5; #563299 and #565033), CD11b (M1/70; #563015 and #560455), Ter119 (Ter119; #565523 and #557909), Sca-1 (D7; #558160) and an eBioscience antibody (eBioscience, Invitrogen) against mouse NOTCH1 (22E5). DN3 populations and IL-7R were stained using BioLegend antibodies (Australian Biosearch, Balcatta WA, Australia) against mouse CD28 (E18) and CD127 (A7R34), respectively. Apoptosis was measured using an antibody against AnnexinV (#556420, BD Australia) and the […] Sytox Blue (BD Australia) following the manufacturer’s protocol.
# For in vitro IL-7 stimulation assays, cells were starved in serum-free DMEM at 37 °C, then incubated with either vehicle or Dynole 34-2 or Ruxolitinib (INCB018424; #S1378, Selleckchem), or DAPT (GSI-IX; #S2215, Selleckchem) resuspended in DMSO for 1 h. Thymocytes were subsequently stimulated with 25 ng/mL IL-7 at 37 °C for 20 min and washed twice using cold PBS 1×. Cells were incubated with 25 ng/mL Rat IgG (Sigma-Aldrich Pty Ltd, Castle Hill NSW, Australia) and with a PE-conjugated antibody for detection of IL-7R (CD127) for 1 h on ice, as described in the FACS analysis section. PE-conjugated isotype was used as negative control. Cells were washed twice, fixed and phosphoflow analysis performed as described in the FACS analysis section. The analysis was performed in triplicate and the mean fluorescence intensity (MFI) observed without stimulation was reported as 100%.
# [2] = tested on: ETP12 and ALL8 patient-derived xenografts; test: Survival (Kaplan-Meier) and leukemia growth delay in ETP12 and ALL8 xenograft recipients; format: in vivo, human
# Description: Patient-derived xenograft models were established as previously described[97],[98]. All experiments were pre-approved by the Human Research Ethics Committee of the University of New South Wales (UNSW), the UNSW Animal Care and Ethics Committee, the Alfred Health Human Ethics Committee and the AMREP Animal Ethics Committee. For transplantation assays, 10^6 splenocytes harvested from successfully engrafted primary human ETP-ALL or T-ALL xenografts were injected into nonobese diabetic/severe combined immunodeficient (NOD.Cg-Prkdc^scid, also termed NOD/SCID) or NOD/SCID/Il2rg^tm1wjl/SzJ (NSG) mice[99]. Moreover, 1.5 × 10^6 cells splenocytes harvested from successfully engrafted patient-derived AML xenografts were injected into nonobese diabetic/severe immunodeficient (NOD.Cg-Rag1^tm1MomIl2rg^tm1wjl/SzJ, also termed NRG) mice expressing human IL-3, human GM-CSF and human SCF from the SGM3 triple transgene (NRGS)[100]. Engraftment into recipients was monitored by FACS analysis of peripheral blood as previously described. […] Both males and females were used. […] Kaplan–Meier survival and statistical analyses were performed using GraphPad Prism. 6.0 software (GraphPad Software, Inc.). […]
# (blue circles) and ALL8 (red open circles) 24 hours after the last dose of drugs was administered.
# therapy. Median is indicated (bar) with Mean ± SEM indicated for ETP12 and ALL8, 2-way ANOVA
# period of administration is indicated in light grey.
structure (smiles),measurement,setting,value
"CCCCCCCCNC(=O)C(C#N)=Cc1cn(CCCN(C)C)c2ccccc12 [Dynole 34-2, 2-Cyano-N-octyl-3-(1-(3-dimethylaminopropyl)-1H-indol-3-yl)-acrylamide]",IL-7R (MFI),"[1]; +IL-7, Dynole 34-2 0.2 µM",6459 MFI and 6071 MFI and 5354 MFI and 5835 MFI and 6042 MFI and 5962 MFI
same,IL-7R (MFI),"[1]; +IL-7, Dynole 34-2 1.0 µM",6945 MFI and 7094 MFI and 7005 MFI and 6255 MFI and 6778 MFI and 5501 MFI
same,IL-7R (MFI),"[1]; +IL-7, Dynole 34-2 5.0 µM",8484 MFI and 8092 MFI and 6662 MFI and 7158 MFI and 8274 MFI and 7535 MFI
same,IL-7R (MFI),"[1]; +IL-7, Dynole 34-2 10.0 µM",7753 MFI and 8175 MFI and 8231 MFI and 7570 MFI
same,IL-7R (MFI),"[1]; +IL-7, Dynole 34-2 25.0 µM",9215 MFI and 8603 MFI and 7481 MFI and 8221 MFI and 8215 MFI and 7582 MFI
same,"survival of recipients, single agent","[2]; ETP12 and ALL8 xenografts, result in words",significant survival advantage
same,Leukemia Growth Delay (LGD) Over Vehicle,[2]; PDX ALL8,2.62 days
same,Leukemia Growth Delay (LGD) Over Vehicle,[2]; PDX ETP12,7.34 days
same,Time to leukemia,[2]; PDX ETP12,4.63 weeks and 5.6 weeks and 4.86 weeks and 4.8 weeks and 5.54 weeks and 4.7 weeks and 4.81 weeks and 6.67 weeks
